Data: patent US10947271B2, “Antibacterial agents” (THE UNIVERSITY OF QUEENSLAND, priority 2014, dated 2021)

Assays:
[1] = test system: Enterococcus faecium MDR Van A ATCC 51559; test: MIC assay, E. faecium MDR Van A ATCC 51559; type: cell-based; settings: 24 h incubation, visual reading
In short: (§1)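 MHB broth microdilution, twofold series, compounds 8–0.003 μg/ml; mid-log inoculum 5×10e5 CFU/mL; 37° C, 24 h; MIC read visually as lowest concentration without growth.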

MRSA (Strain ATCC 43300) = test: Murine thigh infection model (MRSA); type: in vivo, Staphylococcus aureus; settings: neutropenic CD1 mice
[2] = Stability of compounds in human plasma; settings: 50% human plasma/PBS pH 7.4, 37° C.
Procedure: Briefly test compounds (20 μM) were prepared from a 1 mM stock solution. The human plasma sample (200 μl) was diluted with 160 μl phosphate-buffer saline (PBS, pH 7.4) to a concentration of 50% v/v before use. Solutions were then vortexed and placed on a 37° C. shaker and shaken gently for 10 minutes. 40 μl of the test compounds were then added to the plasma sample and vortexed. For the reaction time t=0 hour, 50 μl of sample was immediately transferred into an eppendorf tube and quenched with 150 μl cold acetonitrile. The remaining plasma solution was incubated and shaken at 37° C. Other samples were collected at time points of 0, 1, 3, 6 and 24 hours whereby 50 μl aliquots were removed and quenched with 150 μl cold acetonitrile. All samples were placed in a 4° C. fridge for 10 minutes then centrifuged at 3000 rpm for 15 minutes. The supernatant (100 μl) was transferred to a glass vial insert for LCMS analysis. The percentage of test compounds remaining at the individual time points relative to sample at time point 0 hour were reported.
Plasma: Human Plasma (Pooled Normal Human Plasma Heparin Anticoagulant 50 mL (IPLA-2 N-04 lot IR09-1001, originally from Innovative Research and imported by BioCore).
All compounds in 100% water (40 μL in 400 μL assay volume equivalent […])
Compounds: 40 μL of the vancomycin derivative solution was added to 160 μL of PBS (pH 7.4) respectively in an Eppendorf tube. 600 μL of cold acetonitrile was added, the tube vortexed and transferred to a glass vial for LC-MS analysis.
Eucatropine: 200 μL of plasma and 190 μL of buffer were vortexed, shaken at 37° C. for 10 minutes. 10 μL of eucatropine solution was then added and the tube vortexed. A 50 μL aliquot was immediately transferred to an Eppendorf tube, 150 μL of cold acetonitrile added and the tube transferred to a 4° C. fridge for 10 minutes. The remaining plasma solution was then transferred to the incubator and shaken at 37° C. The tube was retrieved from the fridge, centrifuged at 3000 rpm for 15 min and 100 μL of supernatant transferred to a glass vial insert for LC-MS analysis. 50 μL aliquots were processed as above at 1, […], 3, 6 and 24 hours and 5 μL was injected into triple quad MS system for analysis. Vancomycin derivatives: 200 μL of plasma and 160 μL of buffer were vortexed and shaken at 37° C. for 10 minutes. 40 μL of compound was then added and the sample was processed as above.

[3] = test system: Staphylococcus aureus MRSA ATCC 43300; test: MIC assay, S. aureus MRSA ATCC 43300; type: cell-based; settings: 24 h incubation, visual reading
In short: as §1

[4] = test system: Streptococcus pneumoniae MDR ATCC 700677; test: MIC assay, S. pneumoniae MDR ATCC 700677; type: cell-based; settings: 24 h incubation, visual reading
In short: as §1

[5] = single subcutaneous dose 25 mg/kg

Row | SMILES | Minimum Inhibitory Concentration (MIC) E. faecium ATCC51559 [1] | Average Reduction log Δcfu MRSA/thigh after 26 h (MRSA (Strain ATCC 43300); single subcutaneous dose 10 mg/kg) | Average Reduction log Δcfu MRSA/thigh after 26 h (MRSA (Strain ATCC 43300); [5]) | % compound remaining after incubation in 50% human plasma ([2]; 0 h (reference time point)) [%] | % compound remaining after incubation in 50% human plasma ([2]; 1 h) [%] | % compound remaining after incubation in 50% human plasma ([2]; 3 h) [%] | % compound remaining after incubation in 50% human plasma ([2]; 6 h) [%] | % compound remaining after incubation in 50% human plasma ([2]; 24 h) [%] | Minimum Inhibitory Concentration (MIC) Staph. aureus ATCC43300 [3] | Minimum Inhibitory Concentration (MIC) S. pneumoniae ATCC 700677 [4] | Average Reduction log Δcfu MRSA/thigh after 26 h (MRSA (Strain ATCC 43300); single subcutaneous dose 200 mg/kg) | Average Reduction log Δcfu MRSA/thigh after 26 h (MRSA (Strain ATCC 43300); single subcutaneous dose 50 mg/kg)
1 | CCCCCCCCCCC(=O)N[C@@H](CCCCN)C(=O)N[C@@H](CCCCNC(=O)[C@H]1NC(=O)[C@H]2NC(=O)[C@H](NC(=O)[C@@H]3NC(=O)[C@H](CC(N)=O)NC(=O)[C@H](NC(=O)[C@@H](CC(C)C)NC)[C@H](O)c4ccc(c(Cl)c4)Oc4cc3cc(c4O[C@@H]3O[C@H](CO)[C@@H](O)[C@H](O)[C@H]3O[C@H]3C[C@](C)(N)[C@H](O)[C@H](C)O3)Oc3ccc(cc3Cl)[C@H]2O)c2ccc(O)c(c2)-c2c(O)cc(O)cc21)C(=O)O [MCC_000080, nC10CO-K-K(Vanc)-OH] | x (x = >4) | xxx (xxx = 4-6) | xxxx (xxxx = >6) | 100 | 101 | 101 | 100 | 89 | xxx (xxx = 0.1-<1) | xxx (xxx = 0.1-<1) |  | 
2 | CN[C@H](CC(C)C)C(=O)N[C@H]1C(=O)N[C@@H](CC(N)=O)C(=O)N[C@H]2C(=O)N[C@H]3C(=O)NC(C(=O)N[C@H](C(=O)O)c4cc(O)cc(O)c4-c4cc3ccc4O)[C@H](O)c3ccc(c(Cl)c3)Oc3cc2cc(c3OC2OC(CO)C(O)C(O)C2OC2CC(C)(N)C(O)C(C)O2)Oc2ccc(cc2Cl)[C@H]1O (stereo partly shown) [MCC_000095, vancomycin, reference compound] |  |  | x (x = 0-2) | 100 | 176 | 145 | 149 | 65 |  |  | xxx (xxx = 4-6) | 
3 | CNC(CC(C)C)C(=O)NC1C(=O)NC(CC(N)=O)C(=O)NC2C(=O)NC3C(=O)NC(C(=O)NC(C(=O)NCCCCC(NC(=O)C(CCCCN)NC(=O)C(CCCCN)NC(=O)c4ccc(Oc5ccccc5)cc4)C(=O)O)c4cc(O)cc(O)c4-c4cc3ccc4O)C(O)c3ccc(c(Cl)c3)Oc3cc2cc(c3OC2OC(CO)C(O)C(O)C2OC2CC(C)(N)C(O)C(C)O2)Oc2ccc(cc2Cl)C1O (stereo not shown) [MCC_000214, (4-PhO-PhCO)-KK-K(Vanc)-OH] | x (x = >4) |  |  | 100 | 101 |  | 107 | 111 | xxx (xxx = 0.1-<1) | xxx (xxx = 0.1-<1) |  | xxx (xxx = 4-6)
